Data on 1 compound can be found in patent US11981675B1, “Pyrrolo[3,2-C]quinoline-2,3-dione compounds as CK2 inhibitors” (KING FAISAL UNIVERSITY, priority 2023, dated 2024).

The test system of one experiment is PC3 (prostate). Kind of experiment: In vitro cytotoxic activity assay (MTT), PC3. To be noted: Homo sapiens, Prostate cell; PC3 (prostate) cells, exposed for 96 hours; read-out: Cytotoxicity activity IC50 (50% inhibition of cell proliferation). Type of experiment: cell-based. On the procedure:
(§1) Compounds 1-16 were screened for their in vitro cytotoxic activity utilizing a 3-(4,5-dimethyl-thiazol-2-yl)-2,5-diphenyltetrazolium bromide (MTT) assay against selected cancer human cell lines consisting of PC3 (prostate), HCT116 (colon), A375 (melanoma), H1299 (lung), MIAPaCa-2 (pancreas), HL60 (leukemia), MCF7 (breast), MDA-MB-231 (breast) (T. Mosmann, J. Immunol. Meth., 1983, 65, 55-63). The cells were cultured at 37° C. in RMPI1640 medium supplemented with 10% fetal bovine serum, 50 IU/mL penicillin, and 50 μg/mL streptomycin in a 5% CO2 incubator. All cells were sub-cultured 3 times/week by trypsinisation. Viable cells were seeded and allowed to adhere for 12 h before a test drug was added in 96-well plates at an initial density of 1.0×10^5 cells/mL. Tumor cell lines were separately exposed to various concentrations of the tested compounds followed by incubation at a temperature of 37° C. during 96 hours inside a medium of fresh RMPI 1640. Cells were subsequently incubated at 37° C. using MTT at 0.5 mg/mL during 4 hours. After removal of supernatant, formazan crystals were dissolved in isopropanol and the optical density was measured at 570 nm. CX-4945 was used as a positive control.

The subject of another experiment is HCT116 (colon). Description: In vitro cytotoxic activity assay (MTT), HCT116. Format: cell-based. To be noted: Homo sapiens, HCT-116; HCT116 (colon) cells, exposed for 96 hours; read-out: Cytotoxicity activity IC50 (50% inhibition of cell proliferation). On the procedure:
as §1

The next experiment has as its system A375 (melanoma). Description: In vitro cytotoxic activity assay (MTT), A375. Format: cell-based. To be noted: Homo sapiens, A-375; A375 (melanoma) cells, exposed for 96 hours; read-out: Cytotoxicity activity IC50 (50% inhibition of cell proliferation). On the procedure:
as §1

The test system of the next experiment is H1299 (lung). Description: In vitro cytotoxic activity assay (MTT), H1299. Type of experiment: cell-based. The settings on record: Homo sapiens, NCI-H1299; H1299 (lung) cells, exposed for 96 hours; read-out: Cytotoxicity activity IC50 (50% inhibition of cell proliferation). On the procedure: as §1
Another experiment deals with MIAPaCa-2 (pancreas). Description: In vitro cytotoxic activity assay (MTT), MIAPaCa-2. Format: cell-based. To be noted: Homo sapiens, MIA PaCa-2; MIAPaCa-2 (pancreas) cells, exposed for 96 hours; read-out: Cytotoxicity activity IC50 (50% inhibition of cell proliferation). The protocol:
as §1

For another experiment, the system named is HL60 (leukemia). Kind of experiment: In vitro cytotoxic activity assay (MTT), HL60. Type of experiment: cell-based. To be noted: Homo sapiens, HL-60; HL60 (leukemia) cells, exposed for 96 hours; read-out: Cytotoxicity activity IC50 (50% inhibition of cell proliferation). The protocol: as §1
The subject of a further experiment is MCF7 (breast). Kind of experiment: In vitro cytotoxic activity assay (MTT), MCF7. Type of experiment: cell-based. To be noted: Homo sapiens; MCF7 (breast) cells, exposed for 96 hours; read-out: Cytotoxicity activity IC50 (50% inhibition of cell proliferation). On the procedure:
as §1

The subject of another experiment is MDA-MB-231 (breast). Description: In vitro cytotoxic activity assay (MTT), MDA-MB-231. Format: cell-based. To be noted: Homo sapiens; MDA-MB-231 (breast) cells, exposed for 96 hours; read-out: Cytotoxicity activity IC50 (50% inhibition of cell proliferation). On the procedure:
as §1

Experiment [1] deals with T1, recombinant human CK2 (RRββ-holoenzyme) (Homo sapiens, UniProt P68400).
T1 construct: purchased Millipore
T1 sequence (P68400 whole entry): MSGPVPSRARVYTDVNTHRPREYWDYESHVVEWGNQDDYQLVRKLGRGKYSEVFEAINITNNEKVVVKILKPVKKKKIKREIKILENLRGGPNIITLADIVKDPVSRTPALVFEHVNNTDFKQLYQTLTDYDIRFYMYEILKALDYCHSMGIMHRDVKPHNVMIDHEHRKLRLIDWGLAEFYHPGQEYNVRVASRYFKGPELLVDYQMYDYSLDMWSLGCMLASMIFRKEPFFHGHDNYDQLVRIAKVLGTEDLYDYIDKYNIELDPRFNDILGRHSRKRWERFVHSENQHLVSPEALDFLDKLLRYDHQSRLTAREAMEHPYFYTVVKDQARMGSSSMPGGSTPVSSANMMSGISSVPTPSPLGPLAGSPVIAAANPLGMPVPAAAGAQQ
T1 sequence (P67870 whole entry partner): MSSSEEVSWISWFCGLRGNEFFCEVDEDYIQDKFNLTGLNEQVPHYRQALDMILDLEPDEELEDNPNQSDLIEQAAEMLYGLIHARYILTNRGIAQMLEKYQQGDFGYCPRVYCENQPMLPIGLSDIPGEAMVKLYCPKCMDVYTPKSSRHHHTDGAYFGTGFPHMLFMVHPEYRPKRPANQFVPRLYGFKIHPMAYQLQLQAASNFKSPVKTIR
Description: CK2 Kinase Assay (radiometric, [γ-33P] ATP). Type of experiment: biochemical. To be noted: final ATP concentration 15 μM, 10 min at 30° C., eight concentrations; read-out: protein kinase CK2 activity IC50. On the procedure: CK2 Kinase Assay was conducted using the protocol as described in Pierre F. et al; J. Med. Chem. 2011, 54, 635-654. The tested compounds in aqueous solution were added at a volume of 10 μL to a reaction mixture comprising 10 μL of assay dilution buffer (ADB; 20 mM MOPS, pH 7.2, 25 mM β-glycerol phosphate, 5 mM EGTA, 1 mM sodium orthovanadate, and 1 mM dithiothreitol), 10 μL of substrate peptide (RRRDDDSDDD, dissolved in ADB at a concentration of 1 mM), 10 μL of recombinant human CK2 (RRββ-holoenzyme, 25 ng dissolved in ADB; Millipore). Reactions were initiated by the addition of 10 μL of ATP solution (90% 75 mM MgCl2, 75 μM ATP (final ATP concentration:15 μM) dissolved in ADB; 10% [γ-33P] ATP (stock 1 mCi/100 μL; 3000 Ci/mmol (Perkin-Elmer) and maintained for 10 min at 30° C. The reactions were quenched with 100 μL of 0.75% phosphoric acid and then transferred to and filtered through a phosphor cellulose filter plate (Millipore). After washing each well five times with 0.75% phosphoric acid, the plate was dried under vacuum for 5 min and, following the addition of 15 μL of scintillation fluid to each well, the residual radioactivity was measured using a Wallac luminescence counter. The IC50 values were derived from eight concentrations of test inhibitors.

In the case of `O=C1Nc2c(c(Nc3cccc(Cl)c3)nc3cc(C(=O)O)ccc23)C1=O` [Compound (1), 4-((3-chlorophenyl)amino)-2,3-dioxo-2,3-dihydro-1H-pyrrolo[3,2-c]quinoline-7-carboxylic acid], the IC50 is 1300 nM in the experiment on PC3 (prostate); 1600 nM with HCT116 (colon); 3200 nM with A375 (melanoma); 1900 nM in the experiment on H1299 (lung); 900 nM in the experiment with MIAPaCa-2 (pancreas); 3600 nM in the experiment on HL60 (leukemia). Also, the IC50 with MCF7 (breast) came out at 5200 nM; with MDA-MB-231 (breast), 4100 nM; in experiment [1], 22 nM.
